# Test results as given in ChEMBL document CHEMBL4130462, “Natural isoflavone biochanin A as a template for the design of new and potent 3-phenylquinolone efflux inhibitors against Mycobacterium avium” (Eur J Med Chem, 2017).
# Experiments:
# Mycobacterium avium [1] = conditions: isolate MAV2
# Description: Inhibition of multidrug resistance efflux pump in Mycobacterium avium isolate MAV2 assessed as potentiation of ofloxacin-induced antibacterial activity by measuring ofloxacin MIC at 1/4 MIC incubated for 3 days by MTT assay
# Mycobacterium avium [2] = conditions: 104 mc'2 3
# Mycobacterium avium [3] = conditions: isolate MAV2; remark: listed apart in the source
# Mycobacterium avium [4] = conditions: 104 mc'2 3; remark: listed apart in the source
# Mycobacterium avium [5] = conditions: isolate MAV2; remark: listed apart in the source
# Mycobacterium avium [6] = conditions: isolate MAV3
# [7] = test system: Mycobacterium avium subsp. avium ATCC 25291
# Mycobacterium avium [8] = assay: Antimycobacterial activity against Mycobacterium avium ATCC 25291 assessed as reduction in bacterial viability incubated for 3 days by MTT assay; format: organism-based; conditions: mycobacterium avium subsp. avium atcc 25291, 72 h
# Mycobacterium avium [9] = conditions: 104
# Mycobacterium avium [10] = conditions: isolate MAV4
# Mycobacterium avium [11] = conditions: isolate MAV3; remark: listed apart in the source
# Mycobacterium avium [12] = conditions: isolate MAV2; remark: listed apart in the source
# Mycobacterium avium [13] = conditions: in vivo, 72 h
# Description: Antimycobacterial activity against Mycobacterium avium 104 mc'2 4 assessed as reduction in bacterial viability incubated for 3 days by MTT assay
# [14] = test system: Mycobacterium avium subsp. avium ATCC 25291; remark: listed apart in the source
# [15] = Cytotoxicity in human monocyte-derived macrophages assessed as reduction in cell viability incubated for 3 days by alamar blue dye based assay; design: species or system Macrophage cell line; conditions: for CC50 at 72 h: human monocyte-derived macrophages; for MTC: macrophage cell line, 72 h
# Mycobacterium avium [16] = conditions: isolate MAV4; remark: listed apart in the source
# Mycobacterium avium [17] = conditions: 104; remark: listed apart in the source
# Mycobacterium avium [18] = conditions: 104 mc'2 4
# Mycobacterium avium [19] = conditions: 104; remark: listed apart in the source
# Mycobacterium avium [20] = assay: Antimycobacterial activity against Mycobacterium avium isolate MAV2 assessed as reduction in bacterial viability incubated for 3 days by MTT assay; format: organism-based; conditions: 72 h
# Mycobacterium avium [21] = conditions: 72 h
# Description: Antimycobacterial activity against Mycobacterium avium 104 assessed as reduction in bacterial viability incubated for 3 days by MTT assay
# Mycobacterium avium [22] = assay: Antimycobacterial activity against Mycobacterium avium isolate MAV4 assessed as reduction in bacterial viability incubated for 3 days by MTT assay; format: organism-based; conditions: 72 h
# Mycobacterium avium [23] = conditions: isolate MAV2; remark: listed apart in the source
# Mycobacterium avium [24] = conditions: 104; remark: listed apart in the source
# Description: Inhibition of multidrug resistance efflux pump in Mycobacterium avium 104 assessed as potentiation of clarithromycin -induced antibacterial activity by measuring clarithromycin MIC at 1/2 MIC incubated for 3 days by MTT assay
# Mycobacterium avium [25] = conditions: 104 mc'2 3; remark: listed apart in the source
# Mycobacterium avium [26] = conditions: isolate MAV2; remark: listed apart in the source
# Description: Inhibition of multidrug resistance efflux pump in Mycobacterium avium isolate MAV2 assessed as potentiation of clarithromycin -induced antibacterial activity by measuring clarithromycin MIC at 1/2 MIC incubated for 3 days by MTT assay (Rvb = >1024 ug/ml)
# Mycobacterium avium [27] = conditions: isolate MAV3; remark: listed apart in the source
# Mycobacterium avium [28] = conditions: isolate MAV3; remark: listed apart in the source
# Mycobacterium avium [29] = conditions: 104 mc'2 3; remark: listed apart in the source
# Mycobacterium avium [30] = conditions: 104 mc'2 4; remark: listed apart in the source
# Mycobacterium avium [31] = conditions: isolate MAV4; remark: listed apart in the source
# Mycobacterium avium [32] = conditions: 104 mc'2 4; remark: listed apart in the source
# Mycobacterium avium [33] = conditions: 104 mc'2 3; remark: listed apart in the source
# Mycobacterium avium [34] = conditions: 104 mc'2 3; remark: listed apart in the source
# Mycobacterium avium [35] = conditions: 104 mc'2 3; remark: listed apart in the source
# Mycobacterium avium [36] = conditions: 104; remark: listed apart in the source
# [37] = test system: Mycobacterium avium subsp. avium ATCC 25291; remark: listed apart in the source
# Mycobacterium avium [38] = conditions: isolate MAV4; remark: listed apart in the source
# Mycobacterium avium [39] = conditions: 104 mc'2 4; remark: listed apart in the source
# Mycobacterium avium [40] = conditions: 104; remark: listed apart in the source
# Mycobacterium avium [41] = conditions: isolate MAV1
# Mycobacterium avium [42] = conditions: isolate MAV2; remark: listed apart in the source
# [43] = Safety index, ratio of CC50 for test compound to CC50 for thioridazine for cytotoxicity in human monocyte-derived macrophages; format: cell-based, Macrophage cell line
smiles,measurement,setting,value
CSc1ccc2c(c1)N(CCC1CCCCN1C)c1ccccc1S2 (configuration not stated) [THIORIDAZINE],MIC,Mycobacterium avium [1],1 µg/mL
same,MIC,Mycobacterium avium [2],12.5 µg/mL
same,MIC,Mycobacterium avium [3],0.25 µg/mL
same,MIC,Mycobacterium avium [4],< 4 µg/mL
same,MIC,Mycobacterium avium [5],512 µg/mL
same,MIC,Mycobacterium avium [6],2 µg/mL
same,MIC,[7],8 µg/mL
same,MIC,Mycobacterium avium [8],30 µg/mL
same,MIC,Mycobacterium avium [9],128 µg/mL
same,MIC,Mycobacterium avium [10],12.5 µg/mL
same,MIC,Mycobacterium avium [11],2 µg/mL
same,MIC,Mycobacterium avium [12],0.25 µg/mL
same,MIC,Mycobacterium avium [13],30 µg/mL
same,MIC,[14],32 µg/mL
same,CC50 at 72 h,[15],13.8 µM
same,MTC,[15],2.5 µM
same,MIC,Mycobacterium avium [16],4 µg/mL
same,MIC,Mycobacterium avium [17],4 µg/mL
same,MIC,Mycobacterium avium [18],128 µg/mL
same,MIC,Mycobacterium avium [19],4 µg/mL
same,MIC,Mycobacterium avium [20],30 µg/mL
same,MIC,Mycobacterium avium [21],30 µg/mL
same,MIC,Mycobacterium avium [22],30 µg/mL
same,MIC,Mycobacterium avium [23],128 µg/mL
same,MIC,Mycobacterium avium [24],2 µg/mL
same,MIC,Mycobacterium avium [25],> 512 µg/mL
same,MIC,Mycobacterium avium [26],256 µg/mL
same,MIC,Mycobacterium avium [27],64 µg/mL
same,MIC,Mycobacterium avium [28],12.5 µg/mL
same,MIC,Mycobacterium avium [29],> 512 µg/mL
same,MIC,Mycobacterium avium [30],4 µg/mL
same,MIC,Mycobacterium avium [31],16 µg/mL
same,MIC,Mycobacterium avium [32],8 µg/mL
same,MIC,Mycobacterium avium [33],< 4 µg/mL
same,MIC,Mycobacterium avium [34],< 0.125 µg/mL
same,MIC,Mycobacterium avium [35],8 µg/mL
same,MIC,Mycobacterium avium [36],32 µg/mL
same,MIC,[37],32 µg/mL
same,MIC,Mycobacterium avium [38],8 µg/mL
same,MIC,Mycobacterium avium [39],256 µg/mL
same,MIC,Mycobacterium avium [40],2 µg/mL
same,MIC,Mycobacterium avium [41],< 0.031 µg/mL
same,MIC,Mycobacterium avium [42],12.5 µg/mL
CCCOc1ccc(-c2cn(CCN3CCCCCC3)c3ccccc3c2=O)cc1,MIC,Mycobacterium avium [1],2 µg/mL
same,MIC,Mycobacterium avium [2],0.78 µg/mL
same,MIC,Mycobacterium avium [3],2 µg/mL
same,MIC,Mycobacterium avium [4],< 4 µg/mL
same,MIC,Mycobacterium avium [5],32 µg/mL
same,MIC,Mycobacterium avium [6],0.5 µg/mL
same,MIC,[7],< 0.25 µg/mL
same,MIC,Mycobacterium avium [8],256 µg/mL
same,MIC,Mycobacterium avium [9],< 4 µg/mL
same,MIC,Mycobacterium avium [10],< 0.39 µg/mL
same,MIC,Mycobacterium avium [11],0.5 µg/mL
same,MIC,Mycobacterium avium [12],1 µg/mL
same,MIC,Mycobacterium avium [13],256 µg/mL
same,MIC,[14],16 µg/mL
same,CC50 at 72 h,[15],50 µM
same,MTC,[15],20 µM
same,MIC,Mycobacterium avium [16],< 0.25 µg/mL
same,MIC,Mycobacterium avium [17],1 µg/mL
same,MIC,Mycobacterium avium [18],< 4 µg/mL
same,MIC,Mycobacterium avium [19],4 µg/mL
same,MIC,Mycobacterium avium [20],128 µg/mL
same,selectivity ratio,[43],4 to 6
same,MIC,Mycobacterium avium [21],256 µg/mL
same,MIC,Mycobacterium avium [22],256 µg/mL
same,MIC,Mycobacterium avium [23],< 4 µg/mL
same,MIC,Mycobacterium avium [24],< 0.125 µg/mL
same,MIC,Mycobacterium avium [25],32 µg/mL
same,MIC,Mycobacterium avium [26],< 4 µg/mL
same,MIC,Mycobacterium avium [27],4 µg/mL
same,MIC,Mycobacterium avium [28],12.5 µg/mL
same,MIC,Mycobacterium avium [29],< 64 µg/mL
same,MIC,Mycobacterium avium [30],1 µg/mL
same,MIC,Mycobacterium avium [31],8 µg/mL
same,MIC,Mycobacterium avium [32],2 µg/mL
same,MIC,Mycobacterium avium [33],< 4 µg/mL
same,MIC,Mycobacterium avium [34],< 0.125 µg/mL
same,MIC,Mycobacterium avium [35],4 µg/mL
same,MIC,Mycobacterium avium [36],< 4 µg/mL
same,MIC,[37],8 µg/mL
same,MIC,Mycobacterium avium [38],2 µg/mL
same,MIC,Mycobacterium avium [39],< 4 µg/mL
same,MIC,Mycobacterium avium [40],< 4 µg/mL
same,MIC,Mycobacterium avium [41],< 0.125 µg/mL
same,MIC,Mycobacterium avium [42],3.12 µg/mL
